Experimental data taken from patent US20080051379A1, “Compositions and Methods for the Treatment of Peripheral B-Cell Neoplasms” (Trustees of Boston University, priority 2004, published 2008).

What was measured:
B-CLL cells = assay: Hoechst 33342 apoptosis assay, B-CLL cells; format: cell-based, human; conditions: for apoptosis by Hoechst 33342 analysis: 48 hrs culture, Roli 10 μM, HC 1 μM
Description: FIGS. 1A-D show the effects of the cyclic nucleotide phosphodiesterase inhibitors rolipram, RO20-1724 and cilostamide on hydrocortisone and dexamethasone-induced apoptosis in B-CLL. In FIG. 1A, leukemic cells from 11 B-CLL patients were assessed for apoptosis by […] analysis after 48 hrs culture in media alone (No treatment), 10 μM rolipram (Roli), 1 μM hydrocortisone (HC) or a combination of the two drugs (Roli+HC). In FIGS. 1B and 1C, leukemic cells from five patients with B-CLL were cultured in media alone or with a dose titration of hydrocortisone (1B: solid line) or dexamethasone (1C: solid line), followed by assessment for apoptosis by Hoechst 33342 FACS analysis at 48 hours. Using the same experimental conditions, the effect of addition of 10 μM rolipram (thick dashed line) to the glucocorticoids was also assessed. In FIG. 1D, the apoptotic effects of the PDE4 inhibitor RO20-1724 (RO20) (10 μM) or the PDE3 inhibitor cilostamide (Cilost) (10 μM) were assessed on B-CLL cells when combined with 1 μM hydrocortisone. Data represent the mean±SEM of triplicate samples.
Blood samples were obtained by IRB-approved consent from flow cytometry-confirmed B-CLL patients that were either untreated or for whom at least one month had elapsed since chemotherapy. Patients with active infections or other serious medical conditions were not included in this study.
CCRF-CEM cells were obtained from ATCC^27. Leukemic or normal mononuclear cells were obtained by centrifugation over Histopaque 1077 (Sigma Chemical Company, St. Louis, Mo.). For purification of T cells, whole mononuclear cells from normal subjects were incubated with magnetic beads coated with appropriate antibodies, then positively purified using a magnet (Miltenyi). Cells were cultured in RPMI 1640 media (Biowhittaker, Walkersville, Md.) supplemented with 10% fetal calf serum, 50 μMol/L 2-mercaptoethanol, 2 mMol/L L-glutamine, 10 mM Hepes pH 7.4, […] (Sigma Chemical Company, St. Louis, Mo.). For isolation of glucocorticoid resistant clones, parental CCRF-CEM cells were treated with 1 μM dexamethasone for 10 days, and surviving cells diluted to ≦one cell/well in a 96-well flat-bottom tissue culture plate, grown for three weeks in media supplemented with 20% fetal calf serum and 1% insulin-transferrin-selenium (GIBCO), and then transferred to regular growth medium. […] For isolation of glucocorticoid-sensitive clones, the same procedure was used, except that treatment with dexamethasone was omitted. A glucocorticoid-sensitive subclone (CEM-S2) was inhibited in its survival by dexamethasone with an IC50=0.007 μM.
Hoechst 33342 and DiOC6(3) apoptosis assays were performed as previously described^22,28. For CCRF-CEM cell survival assays, cells were plated at a density of 3×10^4/well in 96-well flat-bottom plates in the presence of test reagents or vehicle in 0.1 mL media. Following incubation for 72 hrs, 20 μl of a 20:1 MTS (2 mg/mL)/PMS (0.92 mg/ml) solution was added to each well, and the plates incubated for 2 hrs at 37°. The absorbance (O.D.) of the formazan product was determined at 492 nm using a plate reader (Titertek Multiscan Plus, Labsystems). Percent cell viability was calculated as follows: (O.D. control sample−O.D. blank)/(O.D. test sample−O.D. blank)×100. All assays were performed in triplicate.

CD3+ CD4+ Sezary cells = assay: Hoechst 33342 apoptosis assay, Sezary cells; format: cell-based, human; conditions: 10 μM rolipram or 1 μM hydrocortisone; one patient
Description: Magnetic bead purified peripheral blood T cells or leukemic cells from patients with B-CLL or Sezary syndrome were cultured in media alone or with a dose titration of hydrocortisone (solid line), followed by assessment for apoptosis by Hoechst 33342 FACS analysis at 48 hours. Using the same experimental conditions, the effect of addition of 10 μM rolipram (thick dashed line) or 10 μM rolipram and 40 μM forskolin (dotted line) was also assessed. The SEM of triplicate samples is shown; where not visible, the SEM was less than 1.0%.
CCRF-CEM cells were obtained from ATCC^27. Leukemic or normal mononuclear cells were obtained by centrifugation over Histopaque 1077 (Sigma Chemical Company, St. Louis, Mo.). For purification of T cells, whole mononuclear cells from normal subjects were incubated with magnetic beads coated with appropriate antibodies, then positively purified using a magnet (Miltenyi). […]
Hoechst 33342 and DiOC6(3) apoptosis assays were performed as previously described^22,28. […] The absorbance (O.D.) of the formazan product was determined at 492 nm using a plate reader (Titertek Multiscan Plus, Labsystems). Percent cell viability was calculated as follows: (O.D. control sample−O.D. blank)/(O.D. test sample−O.D. blank)×100. […]

[1] = system: cAMP levels in CCRF-CEM cells; assay: cAMP RIA, CCRF-CEM cells; format: cell-based, human; conditions: 30 minutes, 10 μM rolipram, 10 μM forskolin, 1 μM hydrocortisone, three experiments
Description: Leukemic cells from six B-CLL patients or CCRF-CEM cells were incubated for 30 minutes with media alone (CT), 10 μM rolipram (Roli), 10 μM forskolin (Fsk), 1 μM hydrocortisone (HC), or the same concentration of hydrocortisone combined with rolipram (Roli/HC) or forskolin (Fsk/HC). Lysates of the cells were then assayed for cAMP using a RIA. The cAMP level obtained from each treated B-CLL sample was normalized to that observed in the untreated leukemic cells. The CCRF-CEM data shown are representative of three experiments performed.
500,000 B-CLL or CCRF-CEM cells were incubated for 30 minutes in one mL media alone or with the addition of drugs. Cells were centrifuged and lysed in 80% ethanol. After vortexing and incubation on ice for 10 minutes, cellular debris was removed by re-centrifugation. The supernatant was dried in a Speedivac and the sample brought up in 250 μL of sample buffer as provided by the makers of a cAMP RIA kit (Amersham). 100 μL of this sample was used for each cAMP assay. The RIA kit was used according to the manufacturer's instructions.

PDE4 = conditions: cited from earlier work

**Q.** With `COc1ccc(C2CNC(=O)C2)cc1OC1CCCC1` (stereo not shown) [rolipram, 4-(3-cyclopentyloxy-4-methoxyphenyl)-2-pyrrolidone] as the molecule, how does the “B-CLL apoptosis, rolipram added to dexamethasone” value (B-CLL cells; 10 μM rolipram + dexamethasone dose titration, 48 hours) read?
**A.** The value was “augmented B-CLL apoptosis beyond the levels observed with either agent alone”.

**Q.** What about the “apoptosis by Hoechst 33342 analysis” value (B-CLL cells; B-CLL patient #1, No Rx 10) of the same molecule?
**A.** The value was 17%.

**Q.** What about the “apoptosis by Hoechst 33342 analysis” value (B-CLL cells; B-CLL patient #2, No Rx 11) of the same molecule?
**A.** The value was 13%.

**Q.** And the “apoptosis by Hoechst 33342 analysis” value (B-CLL cells; B-CLL patient #3, No Rx 13)?
**A.** Its value is 24%.

**Q.** And the “apoptosis by Hoechst 33342 analysis” value (B-CLL cells; B-CLL patient #4, No Rx 23)?
**A.** Its value is 34%.

**Q.** What about the “apoptosis by Hoechst 33342 analysis” value (B-CLL cells; B-CLL patient #5, No Rx 25) of the same molecule?
**A.** Its value is 37%.

**Q.** What about the “apoptosis by Hoechst 33342 analysis” value (B-CLL cells; B-CLL patient #6, No Rx 27) of the same molecule?
**A.** Its value is 45%.

**Q.** And the “apoptosis by Hoechst 33342 analysis” value (B-CLL cells; B-CLL patient #7, No Rx 31)?
**A.** The value was 67%.

**Q.** What about the “apoptosis by Hoechst 33342 analysis” value (B-CLL cells; B-CLL patient #8, No Rx 33) of the same molecule?
**A.** The value was 62%.

**Q.** What about the “apoptosis by Hoechst 33342 analysis” value (B-CLL cells; B-CLL patient #9, No Rx 35) of the same molecule?
**A.** The value was 81%.

**Q.** And the “apoptosis by Hoechst 33342 analysis” value (B-CLL cells; B-CLL patient #10, No Rx 44)?
**A.** The value was 58%.

**Q.** And the “apoptosis by Hoechst 33342 analysis” value (B-CLL cells; B-CLL patient #11, No Rx 61)?
**A.** Its value is 75%.

**Q.** And the “augmentation of induction of apoptosis relative to the increment induced with 100 μM hydrocortisone alone” value (B-CLL cells; addition of 10 μM rolipram to 100 μM hydrocortisone, five patients)?
**A.** The value was 40±18%.

**Q.** And the “apoptotic effect used separately on Sezary leukemic cells” value (CD3+ CD4+ Sezary cells)?
**A.** The value was “little effect”.

**Q.** And the “effect on cAMP levels” value [1]?
**A.** Its value is “no effect”.
